Read-outs that look alike come from different tables or passages of the source.
Experiments:
Assay type in all cases: cell-based
[1] = system: Human esophageal cancer cells OE33; experiment: Tumor cell growth inhibitory activity (CCK-8), OE33; conditions: 72 h incubation, read-out: IC50 for inhibiting the growth of tumor cells, OE33
Method: (§1) Human esophageal cancer cells OE33, human breast cancer cells MDA-MB-231, human gastric cancer cells NCI-N87, human lung cancer cells NCI-H1975, human esophageal cancer cells TE12, human breast cancer cells SK-BR-3, etc., were cultured in RPMI1640 (Cellmax) supplemented with 10% fetal bovine serum (Cellmax). Tumor cells in the exponential growth phase were diluted to a concentration of 1×10^5 cells/mL with culture medium and added to 96-well cell culture plates at 100 μL per well, then returned and incubated overnight in a 37° C. incubator with 5% CO2. On the following day, the compounds were diluted to concentrations of 10000 nM, 2000 nM, 400 nM, 80 nM, 16 nM, 3.2 nM, 0.64 nM, and 0.13 nM with culture medium, and the diluted compounds were added to the 96-well cell culture plates at 2 μL per well, with three replicate wells for each concentration. Negative control and blank control groups without addition of compounds were added with 2 μL of the dilution liquid per well. After the addition of the compounds, the plates were returned to the 37° C. incubator with 5% CO2 to continue the incubation for 72 h. After the incubation, the cell culture plates were removed, and the culture medium in the plates was aspirated using a pipette. Then, 100 μL of culture medium containing 10% CCK-8 was added to each well, and the plates were incubated at 37° C. for 3 h. After the incubation, the plates were removed, kept in the dark, and placed in an ELISA plate. Absorbance was measured at 630 nm as the reference wavelength and 450 nm as the test wavelength. Based on the absorbance values, the IC50 values (Table 1) were calculated using the four-parameter logistic regression method in GraphPad.

[2] = system: human breast cancer cells SK-BR-3; experiment: Tumor cell growth inhibitory activity (CCK-8), SK-BR-3; conditions: SK-BR-3 cells, 72 h incubation, read-out: IC50 for inhibiting the growth of tumor cells, SK-BR-3
Method: as §1

[3] = system: human lung cancer cells NCI-H1975; experiment: Tumor cell growth inhibitory activity (CCK-8), NCI-H1975; conditions: 72 h incubation, read-out: IC50 for inhibiting the growth of tumor cells, NCI-H1975
Method: as §1

[4] = system: human esophageal cancer cells TE12; experiment: Tumor cell growth inhibitory activity (CCK-8), TE12; conditions: 72 h incubation, read-out: IC50 for inhibiting the growth of tumor cells, TE12
Method: as §1

[5] = system: human gastric cancer cells NCI-N87; experiment: Tumor cell growth inhibitory activity (CCK-8), NCI-N87; conditions: 72 h incubation, read-out: IC50 for inhibiting the growth of tumor cells, NCI-N87
Method: as §1

[6] = system: human breast cancer cells MDA-MB-231; experiment: Tumor cell growth inhibitory activity (CCK-8), MDA-MB-231; conditions: MDA-MB-231 cells, 72 h incubation, read-out: IC50 for inhibiting the growth of tumor cells, MDA-MB-231
Method: as §1

CC[C@@]1(O)C(=O)OCc2c1cc1n(c2=O)Cc2c-1nc1cc(F)c(C)c3c1c2[C@@H](NC(=O)CNCC(F)(F)F)CC3 [Compound 2, N—(N-(2′-trifluoroethyl)aminoacetyl)exatecan]
IC50 [1]: 1.09 nM | IC50 [2]: 1 nM | IC50 [3]: 47.3 nM | IC50 [4]: 12.7 nM | IC50 [5]: 0.443 nM | IC50 [6]: 238 nM

CC[C@@]1(O)C(=O)OCc2c1cc1n(c2=O)Cc2c-1nc1cc(F)c(C)c3c1c2[C@@H](NC(=O)C(N)C(F)(F)F)CC3 (stereo partly drawn) [Compound 3, 2′-amino-3′,3′,3′-trifluoropropanoyl exatecan]
IC50 ([1]; Homo sapiens): 5.61 nM | IC50 ([2]; Homo sapiens): 3.01 nM | IC50 ([3]; Homo sapiens): 56.2 nM | IC50 ([4]; Homo sapiens): 21.1 nM | IC50 ([5]; Homo sapiens): 1.74 nM | IC50 ([6]; Homo sapiens): 262 nM

CC[C@@]1(O)C(=O)OCc2c1cc1n(c2=O)Cc2c-1nc1cc(F)c(C)c3c1c2[C@@H](NC(=O)C(F)C(N)=O)CC3 (stereo partly drawn) [Compound 1, N-(2′-fluoro-3′-amino-3′-oxo-propanoyl) exatecan]
IC50 [1]: 37.8 nM | IC50 [2]: 18 nM | IC50 [3]: 598 nM | IC50 [4]: 341 nM | IC50 [5]: 12.1 nM | IC50 [6]: > 1000 nM

CC[C@@]1(O)C(=O)OCc2c1cc1n(c2=O)Cc2c-1nc1cc(F)c(C)c3c1c2[C@@H](NC(=O)CO)CC3 [Dxd, reference compound]
IC50 ([1]; Homo sapiens): 6.55 nM | IC50 ([2]; Homo sapiens): 4.46 nM | IC50 ([3]; Homo sapiens): 73.6 nM | IC50 ([4]; Homo sapiens): 21.5 nM | IC50 ([5]; Homo sapiens): 1.35 nM | IC50 ([6]; Homo sapiens): 207 nM

CC[C@@]1(O)C(=O)OCc2c1cc1n(c2=O)Cc2c-1nc1cc(F)c(C)c3c1c2[C@@H](NC(=O)[C@@H]1CC(F)(F)CN1)CC3 [Compound 4, 4′,4′-difluoroprolyl exatecan]
IC50 ([1]; Homo sapiens): 0.755 nM | IC50 ([2]; Homo sapiens): 0.35 nM | IC50 ([3]; Homo sapiens): 40.6 nM | IC50 ([4]; Homo sapiens): 11.2 nM | IC50 ([5]; Homo sapiens): 0.101 nM | IC50 ([6]; Homo sapiens): 200 nM

CC[C@@]1(O)C(=O)OCc2c1cc1n(c2=O)Cc2c-1nc1cc(F)c(C)c3c1c2[C@@H](NC(=O)C(F)F)CC3 [Compound 5, 2′,2′-difluoroacetyl exatecan]
IC50 ([1]; Homo sapiens): 4.34 nM | IC50 ([2]; Homo sapiens): 2.06 nM | IC50 ([3]; Homo sapiens): 13.7 nM | IC50 ([4]; Homo sapiens): 18.5 nM | IC50 ([5]; Homo sapiens): 0.873 nM | IC50 ([6]; Homo sapiens): 403 nM

CC[C@@]1(O)C(=O)OCc2c1cc1n(c2=O)Cc2c-1nc1cc(F)c(C)c3c1c2[C@H](NC(=O)C(C)(F)F)CC3 [Compound 6, 2′,2′-difluoropropionyl exatecan]
IC50 ([1]; Homo sapiens): 0.615 nM | IC50 ([2]; Homo sapiens): 0.32 nM | IC50 ([3]; Homo sapiens): 38.5 nM | IC50 ([4]; Homo sapiens): 7.61 nM | IC50 ([5]; Homo sapiens): 0.165 nM | IC50 ([6]; Homo sapiens): 143 nM
